# According to patent publication US10934297B2, “5-heteroaryl substituted indazole-3-carboxamides and preparation and use thereof” (Samumed, LLC, priority 2018, dated 2021):
# Experiments:
# GSK3β kinase = GSK3β kinase (Homo sapiens (Human), UniProt P49841); assay: GSK3β kinase assay (Ser/Thr 09 peptide Z-lyte FRET); type: biochemical; conditions: read-out: EC50 (method: IC50)
# In short: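 Non-radioactive Z-lyte FRET read-out, kinase activity expressed as coumarin/fluorescein emission ratio. Compounds incubated with the reaction mixture one hour at room temperature in duplicate, then development buffer added for another hour. IC50 from non-linear regression of dose-response curves.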
# IL-6 = IL-6 inhibition in LPS-stimulated human peripheral blood mononuclear cells (HTRF); type: cell-based; conditions: Homo sapiens, PBMC; for EC50: huPBMCs, LPS 50 ng/mL, 22 hours, IL-6 HTRF; for inhibition at 10 µM: read-out: percent inhibition at 10 μM
# In short: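 HTRF 665/620 nm ratio, read after 3 h antibody incubation at room temperature, quantified IL-6 released by fresh human PBMCs (1×10e6 cells/mL, 1% FBS-RPMI). The cells got compound, then 50 ng/mL LPS at 2 h, followed by a further 22 h at 37° C. EC50 came from DMSO-normalized readings run in duplicate.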
# DYRK1A kinase = DYRK1A kinase (Homo sapiens (Human), UniProt Q13627); assay: DYRK1A kinase assay (Ser/Thr 18 peptide Z-lyte FRET); type: biochemical; conditions: read-out: EC50 (method: IC50)
# In short: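 Kinase reactions with compound ran 1 h at room temperature in duplicate, and development reagent was then added for another hour.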
# [1] = system: primary human fibroblasts derived from IPF patients (LL29 cells); assay: Inhibition of the fibrotic process: αSMA staining in TGF-β1 treated LL29 fibroblasts; type: cell-based; conditions: Homo sapiens, Fibroblast; for EC50: 96 h, LL29 cells, TGF-β1 20 ng/mL, 4 days, % αSMA positive cells
# In short: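 LL29 fibroblasts from IPF patients, in F12 medium with 1% FBS, treated with TGF-β1 plus compound; TGF-β1 with DMSO as positive control, DMSO alone as negative control. After 4 days' incubation, SYTOX green nucleic acid stain added at 1 μM final, 30 min at room temperature.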
# [2] = system: primary human mesenchymal stem cells (hMSCs); assay: Tenocyte differentiation assay (SCXA-positive cells) in hMSCs; type: cell-based; conditions: for EC50: Homo sapiens, Mesenchymal stem cells, 96 h, hMSCs, 4 days, SCXA positive cells; for percent in parentheses under EC50 >100: given for EC50 >100 μM, meaning not defined in this example
# Text: Representative compounds were screened using primary human mesenchymal stem cells (hMSCs) to determine their ability to induce tenocyte differentiation (process by which tendon is developed).
# Primary human mesenchymal stem cells (hMSCs) were purchased from Lonza (Walkersville, Md.) and expanded in Mesenchymal Stem Cell Growth Media (Lonza). Cells between passage 3 and 6 were used for the experiments.
# Cells were fixed using 4% formaldehyde (Electron Microscopy Sciences), and stained with anti-Sclerasis (anti-SCXA) antibodies (Abgent, San Diego, Calif.) [Webb S., et.al., Retinoic acid receptor signaling preserves tendon stem cell characteristics and prevents spontaneous differentiation in vitro, Stem Cell Research & Therapy 2016, 7:45] overnight at 4° C. […] Number of cells positive for SCXA in each well was quantified using the CellInsight CX5. Data was normalized to the average of 12 DMSO treated wells on the same plate using Dotmatics Studies module. The normalized averages (fold change over DMSO) of 3 replicate wells for each compound concentration were calculated. Due to solubility limitations of some of the compounds, values for higher doses were manually corrected and curve fitting and EC50 determinations were performed using Dotmatics Studies.
# [3] = system: Wnt activity (Sp5-Luc reporter in SW480 cells); assay: Screening assay for Wnt activity: Sp5-Luc reporter gene assay in SW480 colon carcinoma cells; type: cell-based, human; conditions: Homo sapiens, 36 to 48 hours
# In short: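 EC50 values come from a variable-slope four-parameter fit of luminescence normalized to DMSO-only wells. The read-out follows 36–48 h incubation at 37 °C, 5% CO2, in DMEM containing 1% fetal bovine serum. Cells are hygromycin-selected SW480 stably expressing firefly luciferase under a Wnt-responsive Sp5 promoter (eight TCF/LEF sites).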
# [4] = system: SW480 colon carcinoma cells; assay: Cell viability assay (CellTiter-Glo) in SW480 colon carcinoma cells; type: cell-based, human; conditions: Homo sapiens, 96 h, four days
# In short: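 Viability was taken from CellTiter-Glo ATP luminescence, read about 12 min after reagent addition, relative to DMSO controls. The cells were Sp5-Luc reporter SW480 colon carcinoma cells, 2,000/well in 1% FBS DMEM, exposed to compound for four days at 37 °C.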
# Chain of GSK3β kinase (P49841 whole entry): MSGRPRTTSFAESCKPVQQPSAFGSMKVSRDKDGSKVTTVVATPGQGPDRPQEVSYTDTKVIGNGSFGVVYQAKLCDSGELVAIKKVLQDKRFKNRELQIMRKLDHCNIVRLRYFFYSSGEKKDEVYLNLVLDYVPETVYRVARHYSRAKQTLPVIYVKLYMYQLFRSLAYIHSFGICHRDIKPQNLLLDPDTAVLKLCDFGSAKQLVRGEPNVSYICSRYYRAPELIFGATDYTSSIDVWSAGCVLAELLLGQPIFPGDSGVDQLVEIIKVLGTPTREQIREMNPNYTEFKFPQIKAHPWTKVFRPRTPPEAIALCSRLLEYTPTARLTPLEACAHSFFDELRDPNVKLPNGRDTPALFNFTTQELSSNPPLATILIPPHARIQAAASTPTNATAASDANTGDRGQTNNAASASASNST
IC50 (GSK3β kinase),EC50 (IL-6),IC50 (DYRK1A kinase),EC50 [2],percent in parentheses under EC50 >100 [2],EC50 [3],EC50 [4],Structure (SMILES),EC50 [1],inhibition at 10 µM (IL-6),inhibition at 10 µM ([1]; read-out: percent inhibition at 10 μM)
208 nM,1100 nM,8 nM,> 100000 nM,(38.2%),130 nM,116 nM,"CN1CCC(n2cc(-c3ccc4[nH]nc(C(=O)Nc5cnn(C)c5)c4c3)cn2)CC1 [Compound 142, N-(1-Methyl-1H-pyrazol-4-yl)-5-(1-(1-methylpiperidin-4-yl)-1H-pyrazol-4-yl)-1H-indazole-3-carboxamide]",115 nM,,
5 nM,1250 nM,2 nM,> 100000 nM,(12.6%),713 nM,2600 nM,"Cn1cc(-c2ccc3[nH]nc(C(=O)Nc4cnn(C5CCNCC5)c4)c3c2)cn1 [Compound 140, 5-(1-Methyl-1H-pyrazol-4-yl)-N-(1-(piperidin-4-yl)-1H-pyrazol-4-yl)-1H-indazole-3-carboxamide]",301 nM,,
52 nM,3570 nM,4 nM,> 100000 nM,(17.4%),248 nM,214 nM,"Cn1cc(-c2cc3c(C(=O)Nc4cccc(OC5CCNCC5)c4)n[nH]c3cc2F)cn1 [Compound 150, 6-Fluoro-5-(1-methyl-1H-pyrazol-4-yl)-N-(3-(piperidin-4-yloxy)phenyl)-1H-indazole-3-carboxamide]",317 nM,,
245 nM,786 nM,4 nM,2490 nM,,100 nM,93 nM,"Cc1ncc(NC(=O)c2n[nH]c3cc(F)c(-c4cnn(C5CCN(C)CC5)c4)cc23)s1 [Compound 127, 6-Fluoro-5-(1-(1-methylpiperidin-4-yl)-1H-pyrazol-4-yl)-N-(2-methylthiazol-5-yl)-1H-indazole-3-carboxamide]",48 nM,,
120 nM,3400 nM,5 nM,> 100000 nM,(31.8%),642 nM,833 nM,"Cc1ncc(-c2ccc3[nH]nc(C(=O)Nc4ccc(OC5CCN(C)CC5)cc4)c3c2)n1C [Compound 161, 5-(1,2-Dimethyl-1H-imidazol-5-yl)-N-(4-((1-methylpiperidin-4-yl)oxy)phenyl)-1H-indazole-3-carboxamide]",3720 nM,,
41 nM,1930 nM,21 nM,14000 nM,,3060 nM,1870 nM,"Cn1cc(-c2cc(F)c3[nH]nc(C(=O)Nc4ccc(CN5CCCC5)cc4)c3c2)cn1 [Compound 119, 7-Fluoro-5-(1-methyl-1H-pyrazol-4-yl)-N-(4-(pyrrolidin-1-ylmethyl)phenyl)-1H-indazole-3-carboxamide]",315 nM,,
23 nM,989 nM,1 nM,315 nM,,140 nM,170 nM,"CN1CCC(Oc2ccc(NC(=O)c3n[nH]c4ccc(-c5cnn(C)c5)cc34)cn2)CC1 [Compound 124, 5-(1-Methyl-1H-pyrazol-4-yl)-N-(6-((1-methylpiperidin-4-yl)oxy)pyridin-3-yl)-1H-indazole-3-carboxamide]",101 nM,,
41 nM,1140 nM,37 nM,863 nM,,345 nM,372 nM,"CC(C)CN1CC[C@H](NC(=O)c2n[nH]c3ccc(-c4cn[nH]c4)cc23)[C@@H](F)C1 [Compound 145, N-((3 S,4S)-3-Fluoro-1-isobutylpiperidin-4-yl)-5-(1H-pyrazol-4-yl)-1H-indazole-3-carboxamide]",100 nM,,
157 nM,> 10000 nM,261 nM,2070 nM,,345 nM,8280 nM,"CC(C)CN1CC[C@H](NC(=O)c2n[nH]c3c(F)cc(-c4cnn(C)c4)cc23)[C@@H](F)C1 [Compound 35, 7-Fluoro-N-((3S,4S)-3-fluoro-1-isobutylpiperidin-4-yl)-5-(1-methyl-1H-pyrazol-4-yl)-1H-indazole-3-carboxamide]",288 nM,9.2%,
1350 nM,> 10000 nM,930 nM,> 100000 nM,(15.8%),> 10000 nM,> 10000 nM,"Cc1ncc(-c2ccc3[nH]nc(C(=O)N[C@@H](C(C)C)C(F)(F)F)c3c2)n1C [Compound 133, (S)-5-(1,2-Dimethyl-1H-imidazol-5-yl)-N-(1,1,1-trifluoro-3-methylbutan-2-yl)-1H-indazole-3-carboxamide]",> 10000 nM,20.2%,35.8%
41 nM,3930 nM,7 nM,> 100000 nM,(2.9%),1460 nM,1250 nM,"Cc1ncc(-c2ccc3[nH]nc(C(=O)Nc4ccc(OC5CCN(C)CC5)cc4)c3c2)s1 [Compound 82, N-(4-((1-Methylpiperidin-4-yl)oxy)phenyl)-5-(2-methylthiazol-5-yl)-1H-indazole-3-carboxamide]",288 nM,,
65 nM,6850 nM,38 nM,> 100000 nM,(34.7%),1460 nM,783 nM,"CN1CCC(Oc2ccc(NC(=O)c3n[nH]c4c(F)cc(-c5cnn(C)c5)cc34)cc2)CC1 [Compound 152, 7-Fluoro-5-(1-methyl-1H-pyrazol-4-yl)-N-(4-((1-methylpiperidin-4-yl)oxy)phenyl)-1H-indazole-3-carboxamide]",1120 nM,,
57 nM,> 10000 nM,49 nM,3090 nM,,4490 nM,8020 nM,"Cc1ncc(-c2ccc3[nH]nc(C(=O)NC4CCN(c5ccc(F)cc5)CC4)c3c2)n1C [Compound 148, 5-(1,2-Dimethyl-1H-imidazol-5-yl)-N-(1-(4-fluorophenyl)piperidin-4-yl)-1H-indazole-3-carboxamide]",4620 nM,24.2%,
1340 nM,> 10000 nM,8290 nM,2480 nM,,4240 nM,5220 nM,"Cn1cc(-c2ccc3[nH]nc(C(=O)NC45CC6CC(CC(C6)C4)C5)c3c2)cn1 [Compound 137, N-((3s,5s,7s)-Adamantan-1-yl)-5-(1-methyl-1H-pyrazol-4-yl)-1H-indazole-3-carboxamide]",2090 nM,,
46 nM,> 10000 nM,482 nM,> 100000 nM,(38.8%),> 10000 nM,> 10000 nM,"Cc1ncc(-c2cc(F)c3[nH]nc(C(=O)N[C@@H](C)C(F)(F)F)c3c2)n1C [Compound 134, (S)-5-(1,2-Dimethyl-1H-imidazol-5-yl)-7-fluoro-N-(1,1,1-trifluoropropan-2-yl)-1H-indazole-3-carboxamide]",1070 nM,8.1%,

Structure (SMILES),IC50 (GSK3β kinase),EC50 (IL-6),IC50 (DYRK1A kinase),EC50 [2],percent in parentheses under EC50 >100 [2],EC50 [3],EC50 [4],EC50 [1],inhibition at 10 µM (IL-6),inhibition at 10 µM ([1]; read-out: percent inhibition at 10 μM)
"CN1CCC(Oc2cc(NC(=O)c3n[nH]c4cc(F)c(-c5cnn(C)c5)cc34)ccn2)CC1 [Compound 156, 6-Fluoro-5-(1-methyl-1H-pyrazol-4-yl)-N-(2-((1-methylpiperidin-4-yl)oxy)pyridin-4-yl)-1H-indazole-3-carboxamide]",53 nM,4290 nM,2 nM,2640 nM,,109 nM,64 nM,1380 nM,,
